Active and inactive are the calls of the source.
Tests used:
SUMO-activating enzyme [1] = biological target: T1, SUMO-activating enzyme (Homo sapiens, UniProt Q9UBT2); test: SUMOylation inhibitor hit validation, confirmation, SUMOylation inhibitor project, biochemical, AlphaScreen (AID 2018); type: functional
SUMO-activating enzyme [2] = biological target: T1, SUMO-activating enzyme; test: inhibitors of in vitro SUMOylation cascade, primary screen, biochemical, HTRF, uHTS (AID 2006); type: protein-complex assay
Exodeoxyribonuclease V = biological target: T2, Exodeoxyribonuclease V (Escherichia coli (strain K12), UniProt P04993+P07648+P08394); test: E. coli RecBCD inhibitors, dose response, counter-screen for AddAB inhibitor project, absorbance, V66 E. coli, mutant T4 phage (AID 492957); type: functional, cell-based, Escherichia coli str. K-12 substr. MG1655
T2 sequence (P04993 whole entry): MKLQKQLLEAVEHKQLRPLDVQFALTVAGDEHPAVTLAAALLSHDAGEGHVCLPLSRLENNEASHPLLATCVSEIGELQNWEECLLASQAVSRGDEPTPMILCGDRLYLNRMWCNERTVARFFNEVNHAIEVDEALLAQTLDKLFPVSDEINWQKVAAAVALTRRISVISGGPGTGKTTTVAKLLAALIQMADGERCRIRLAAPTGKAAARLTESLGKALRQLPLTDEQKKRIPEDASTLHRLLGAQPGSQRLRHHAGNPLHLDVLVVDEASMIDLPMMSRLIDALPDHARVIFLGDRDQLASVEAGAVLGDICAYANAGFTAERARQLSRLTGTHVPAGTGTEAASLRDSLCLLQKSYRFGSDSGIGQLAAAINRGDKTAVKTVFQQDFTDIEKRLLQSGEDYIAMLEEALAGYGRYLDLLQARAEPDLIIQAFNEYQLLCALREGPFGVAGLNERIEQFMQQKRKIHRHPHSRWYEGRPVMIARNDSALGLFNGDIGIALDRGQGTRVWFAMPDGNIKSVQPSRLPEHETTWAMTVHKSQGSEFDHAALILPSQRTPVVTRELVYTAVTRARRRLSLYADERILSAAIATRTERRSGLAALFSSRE
T2 sequence (P07648 whole entry): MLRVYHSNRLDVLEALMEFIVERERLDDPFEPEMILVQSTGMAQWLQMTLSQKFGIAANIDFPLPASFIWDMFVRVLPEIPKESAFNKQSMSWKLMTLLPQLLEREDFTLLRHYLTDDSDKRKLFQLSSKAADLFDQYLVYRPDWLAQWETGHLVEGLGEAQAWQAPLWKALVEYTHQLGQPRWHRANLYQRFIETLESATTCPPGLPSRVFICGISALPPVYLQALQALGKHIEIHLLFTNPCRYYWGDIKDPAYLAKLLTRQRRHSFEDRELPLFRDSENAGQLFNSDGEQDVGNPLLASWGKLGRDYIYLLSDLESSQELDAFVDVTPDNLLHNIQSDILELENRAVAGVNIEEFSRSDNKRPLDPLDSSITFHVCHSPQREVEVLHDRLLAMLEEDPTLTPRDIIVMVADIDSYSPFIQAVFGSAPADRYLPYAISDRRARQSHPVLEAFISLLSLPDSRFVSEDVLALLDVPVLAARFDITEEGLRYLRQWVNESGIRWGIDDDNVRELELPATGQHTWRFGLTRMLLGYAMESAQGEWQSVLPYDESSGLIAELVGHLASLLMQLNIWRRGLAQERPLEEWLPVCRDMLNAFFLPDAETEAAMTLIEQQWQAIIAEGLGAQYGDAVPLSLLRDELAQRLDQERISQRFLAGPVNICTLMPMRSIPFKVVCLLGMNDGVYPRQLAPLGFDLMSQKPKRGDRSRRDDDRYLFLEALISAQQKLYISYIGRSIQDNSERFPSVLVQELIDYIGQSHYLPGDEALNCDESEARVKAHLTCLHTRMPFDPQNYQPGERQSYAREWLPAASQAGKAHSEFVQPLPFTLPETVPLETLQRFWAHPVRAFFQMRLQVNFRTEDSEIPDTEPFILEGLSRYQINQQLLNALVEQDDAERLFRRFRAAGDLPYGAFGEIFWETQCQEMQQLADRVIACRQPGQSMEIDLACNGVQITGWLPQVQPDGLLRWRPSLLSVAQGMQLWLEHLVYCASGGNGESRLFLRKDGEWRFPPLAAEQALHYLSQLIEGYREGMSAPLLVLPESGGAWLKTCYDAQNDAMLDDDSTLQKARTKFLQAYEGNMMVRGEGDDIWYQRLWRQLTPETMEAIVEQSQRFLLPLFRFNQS
T2 sequence (P08394 whole entry): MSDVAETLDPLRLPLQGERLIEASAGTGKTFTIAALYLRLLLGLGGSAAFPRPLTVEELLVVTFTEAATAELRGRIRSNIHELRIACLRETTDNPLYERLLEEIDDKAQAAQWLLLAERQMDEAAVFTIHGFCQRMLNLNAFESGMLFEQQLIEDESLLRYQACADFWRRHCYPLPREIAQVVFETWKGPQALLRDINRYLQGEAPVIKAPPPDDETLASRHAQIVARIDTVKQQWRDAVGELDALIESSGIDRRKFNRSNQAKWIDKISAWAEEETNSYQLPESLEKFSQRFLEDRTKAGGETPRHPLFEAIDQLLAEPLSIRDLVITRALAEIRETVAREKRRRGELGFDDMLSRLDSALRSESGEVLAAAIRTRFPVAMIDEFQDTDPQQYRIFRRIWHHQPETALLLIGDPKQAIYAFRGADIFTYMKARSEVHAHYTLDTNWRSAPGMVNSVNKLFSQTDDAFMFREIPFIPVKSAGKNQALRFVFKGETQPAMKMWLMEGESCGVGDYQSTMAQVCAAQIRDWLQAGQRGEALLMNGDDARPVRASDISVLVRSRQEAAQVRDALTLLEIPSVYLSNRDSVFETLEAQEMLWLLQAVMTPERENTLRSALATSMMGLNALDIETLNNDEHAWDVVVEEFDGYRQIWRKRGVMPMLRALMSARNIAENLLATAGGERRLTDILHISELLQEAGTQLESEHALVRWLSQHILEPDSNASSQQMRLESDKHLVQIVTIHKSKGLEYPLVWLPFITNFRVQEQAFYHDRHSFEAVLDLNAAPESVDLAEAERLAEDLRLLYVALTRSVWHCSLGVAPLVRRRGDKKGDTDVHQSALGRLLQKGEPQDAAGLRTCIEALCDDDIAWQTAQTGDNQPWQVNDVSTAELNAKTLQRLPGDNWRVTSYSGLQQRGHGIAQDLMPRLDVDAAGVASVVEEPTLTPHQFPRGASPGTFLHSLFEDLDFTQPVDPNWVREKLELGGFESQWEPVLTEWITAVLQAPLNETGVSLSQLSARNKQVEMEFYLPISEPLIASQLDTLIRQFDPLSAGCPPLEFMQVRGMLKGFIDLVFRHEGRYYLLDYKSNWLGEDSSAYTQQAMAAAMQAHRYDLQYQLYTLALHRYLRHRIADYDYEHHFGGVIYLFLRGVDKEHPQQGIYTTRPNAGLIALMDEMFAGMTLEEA

[3] = Counterscreen for AddAB inhibitors: absorbance-based bacterial cell-based high throughput dose response assay for inhibitors of bacterial viability. [Related pubchem assays (depositor defined):AID435030, AID449728, AID449731, AID488942, AID488955, AID488956]; type: functional
Albumin = Albumin (Bos taurus, UniProt P02769); test: Counterscreen for inhibitors of T-cell receptor (TCR)-CD3 interaction: Fluorescence-based biochemical high throughput dose response assay to identify inhibitors of T-cell receptor (TCR)-CD3 interaction using a TAMRA-labeled BSA probe.; type: functional
HeLa = test: HeLa cell cytotoxicity, dose response, cytotoxicity control for MITF activator project, CellTiter-Glo luminescence, cherry-pick samples (AID 540259); type: functional, cell-based; settings: Homo sapiens
Escherichia coli = test: microbe, parasite or virus in culture
Tumor necrosis factor = Tumor necrosis factor (Homo sapiens, UniProt P01375); test: TNFa-triggered NF-kB activation inhibitors, SAR follow-up, cell-based, revised (AID 2337); type: functional
[4] = biological target: T3, Nucleotide-binding oligomerization domain-containing protein 1 (Homo sapiens, UniProt Q9Y239); test: NOD1 signaling inhibitors, SAR follow-up, revised (AID 2333); type: functional
T3 sequence (Q9Y239 whole entry): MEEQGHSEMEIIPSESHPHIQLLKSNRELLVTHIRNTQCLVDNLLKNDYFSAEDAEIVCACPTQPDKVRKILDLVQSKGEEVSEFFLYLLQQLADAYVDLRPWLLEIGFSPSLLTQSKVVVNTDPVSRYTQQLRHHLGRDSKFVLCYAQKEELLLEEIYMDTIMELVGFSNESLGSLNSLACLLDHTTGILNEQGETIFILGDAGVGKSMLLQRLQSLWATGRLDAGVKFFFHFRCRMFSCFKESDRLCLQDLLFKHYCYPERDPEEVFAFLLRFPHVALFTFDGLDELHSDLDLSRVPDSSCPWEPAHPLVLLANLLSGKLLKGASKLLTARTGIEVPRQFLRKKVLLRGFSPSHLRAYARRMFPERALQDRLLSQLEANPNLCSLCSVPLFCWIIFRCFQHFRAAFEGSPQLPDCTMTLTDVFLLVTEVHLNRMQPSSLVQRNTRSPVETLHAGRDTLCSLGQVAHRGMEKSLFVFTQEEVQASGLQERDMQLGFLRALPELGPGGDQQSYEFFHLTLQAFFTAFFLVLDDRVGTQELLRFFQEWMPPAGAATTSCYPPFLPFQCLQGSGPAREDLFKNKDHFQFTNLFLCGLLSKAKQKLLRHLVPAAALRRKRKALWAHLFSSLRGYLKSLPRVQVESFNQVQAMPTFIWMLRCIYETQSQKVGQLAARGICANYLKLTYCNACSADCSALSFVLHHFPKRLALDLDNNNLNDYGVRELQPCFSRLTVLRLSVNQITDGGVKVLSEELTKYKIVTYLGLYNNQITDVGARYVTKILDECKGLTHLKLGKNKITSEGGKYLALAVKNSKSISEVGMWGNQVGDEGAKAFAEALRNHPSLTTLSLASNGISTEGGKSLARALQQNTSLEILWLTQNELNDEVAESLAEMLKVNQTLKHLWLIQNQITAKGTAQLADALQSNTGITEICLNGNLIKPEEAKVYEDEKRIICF

HEK293 = test: cells; settings: Homo sapiens;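 further: cells exposed to compound for 14 hours overnight before viability readout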
Phospholipase D1 = biological target: T4, Phospholipase D1 (Homo sapiens, UniProt Q13393); test: PLD1 inhibitor potency in cells, dose response (AID 602151); type: functional;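 further: cellular PLD1 assay in Calu-1 cells stimulated with PMA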
T4 sequence (Q13393 whole entry): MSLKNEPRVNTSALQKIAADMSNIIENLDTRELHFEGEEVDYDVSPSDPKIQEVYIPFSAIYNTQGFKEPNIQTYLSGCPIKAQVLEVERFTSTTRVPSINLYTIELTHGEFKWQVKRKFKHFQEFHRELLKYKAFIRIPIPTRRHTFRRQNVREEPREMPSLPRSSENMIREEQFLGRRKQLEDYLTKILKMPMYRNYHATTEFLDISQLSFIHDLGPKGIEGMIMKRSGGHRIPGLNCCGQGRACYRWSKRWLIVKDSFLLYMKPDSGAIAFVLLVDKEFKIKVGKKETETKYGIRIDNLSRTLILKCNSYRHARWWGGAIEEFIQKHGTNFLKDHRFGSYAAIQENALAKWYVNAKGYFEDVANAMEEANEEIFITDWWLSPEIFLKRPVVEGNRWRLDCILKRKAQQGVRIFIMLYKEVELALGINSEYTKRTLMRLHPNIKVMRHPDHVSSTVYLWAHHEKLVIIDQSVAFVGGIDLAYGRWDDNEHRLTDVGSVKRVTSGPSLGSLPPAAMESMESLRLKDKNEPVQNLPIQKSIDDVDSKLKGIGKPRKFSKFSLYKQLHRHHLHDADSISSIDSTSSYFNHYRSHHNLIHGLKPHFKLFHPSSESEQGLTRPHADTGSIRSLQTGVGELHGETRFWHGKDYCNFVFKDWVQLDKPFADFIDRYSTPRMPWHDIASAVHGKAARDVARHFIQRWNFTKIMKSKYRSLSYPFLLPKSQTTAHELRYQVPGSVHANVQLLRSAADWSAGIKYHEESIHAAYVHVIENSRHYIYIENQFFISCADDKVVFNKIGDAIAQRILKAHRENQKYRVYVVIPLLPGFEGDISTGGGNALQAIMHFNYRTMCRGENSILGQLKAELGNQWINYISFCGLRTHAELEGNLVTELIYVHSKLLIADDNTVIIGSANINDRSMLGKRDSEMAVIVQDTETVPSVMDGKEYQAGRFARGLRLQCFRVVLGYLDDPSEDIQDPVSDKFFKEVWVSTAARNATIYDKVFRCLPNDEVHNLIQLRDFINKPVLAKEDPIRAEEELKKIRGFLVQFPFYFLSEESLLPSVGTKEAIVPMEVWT

Phospholipase D2 = Phospholipase D2 (Homo sapiens, UniProt O14939); test: PLD2 inhibitor potency in cells, dose response (AID 602147); type: functional;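 further: cellular assay in HEK293 cells overexpressing GFP-tagged PLD2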
Chain of Phospholipase D2 (O14939 whole entry): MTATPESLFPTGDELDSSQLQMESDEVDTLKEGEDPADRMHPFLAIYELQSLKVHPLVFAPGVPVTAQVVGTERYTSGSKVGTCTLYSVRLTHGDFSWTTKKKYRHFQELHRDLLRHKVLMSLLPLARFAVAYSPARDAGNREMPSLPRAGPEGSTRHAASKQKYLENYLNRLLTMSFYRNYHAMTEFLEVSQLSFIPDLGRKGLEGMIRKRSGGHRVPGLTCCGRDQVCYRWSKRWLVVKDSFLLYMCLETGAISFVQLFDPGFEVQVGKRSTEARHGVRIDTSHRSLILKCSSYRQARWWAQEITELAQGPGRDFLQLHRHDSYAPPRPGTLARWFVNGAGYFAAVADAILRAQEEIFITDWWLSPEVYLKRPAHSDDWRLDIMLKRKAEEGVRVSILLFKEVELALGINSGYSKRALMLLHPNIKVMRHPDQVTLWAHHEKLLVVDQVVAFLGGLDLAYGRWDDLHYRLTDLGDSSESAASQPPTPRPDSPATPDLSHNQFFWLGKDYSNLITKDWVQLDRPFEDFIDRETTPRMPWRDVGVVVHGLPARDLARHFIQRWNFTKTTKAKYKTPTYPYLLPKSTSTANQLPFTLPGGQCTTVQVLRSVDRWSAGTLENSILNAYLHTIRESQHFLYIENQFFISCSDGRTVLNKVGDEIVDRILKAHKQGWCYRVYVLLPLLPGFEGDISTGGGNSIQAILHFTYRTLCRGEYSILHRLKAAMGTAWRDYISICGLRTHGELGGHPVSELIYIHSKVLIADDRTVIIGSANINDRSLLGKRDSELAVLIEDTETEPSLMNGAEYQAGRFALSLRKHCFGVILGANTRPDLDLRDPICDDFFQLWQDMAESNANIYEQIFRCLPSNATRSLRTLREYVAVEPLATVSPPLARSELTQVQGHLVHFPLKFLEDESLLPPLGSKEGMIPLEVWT

T1 sequence (Q9UBE0 whole entry): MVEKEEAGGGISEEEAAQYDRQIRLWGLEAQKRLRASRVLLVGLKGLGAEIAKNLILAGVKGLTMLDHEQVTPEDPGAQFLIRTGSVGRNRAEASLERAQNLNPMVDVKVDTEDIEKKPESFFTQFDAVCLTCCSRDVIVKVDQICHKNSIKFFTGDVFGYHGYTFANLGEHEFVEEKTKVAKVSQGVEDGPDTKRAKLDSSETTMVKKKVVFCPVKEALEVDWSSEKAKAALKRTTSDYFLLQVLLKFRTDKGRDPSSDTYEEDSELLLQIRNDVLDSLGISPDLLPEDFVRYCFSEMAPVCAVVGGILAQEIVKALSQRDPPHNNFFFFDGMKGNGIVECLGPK
T1 sequence (Q9UBT2 whole entry): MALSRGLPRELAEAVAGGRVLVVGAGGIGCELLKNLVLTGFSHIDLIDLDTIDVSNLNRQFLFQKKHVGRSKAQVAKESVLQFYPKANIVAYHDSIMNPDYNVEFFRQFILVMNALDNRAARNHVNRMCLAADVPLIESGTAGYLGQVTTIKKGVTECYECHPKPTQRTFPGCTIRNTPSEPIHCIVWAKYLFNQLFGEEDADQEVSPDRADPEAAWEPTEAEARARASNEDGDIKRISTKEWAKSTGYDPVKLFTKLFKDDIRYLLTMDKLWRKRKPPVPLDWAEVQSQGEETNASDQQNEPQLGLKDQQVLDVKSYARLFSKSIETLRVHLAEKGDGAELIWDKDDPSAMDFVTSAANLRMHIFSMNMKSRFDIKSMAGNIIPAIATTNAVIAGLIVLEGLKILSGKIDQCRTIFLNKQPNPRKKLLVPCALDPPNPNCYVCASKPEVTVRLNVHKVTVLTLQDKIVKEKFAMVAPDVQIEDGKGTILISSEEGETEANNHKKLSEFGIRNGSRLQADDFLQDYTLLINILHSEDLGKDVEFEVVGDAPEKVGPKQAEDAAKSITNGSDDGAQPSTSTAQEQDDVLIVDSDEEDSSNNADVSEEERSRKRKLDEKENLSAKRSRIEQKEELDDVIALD
Chain of Tumor necrosis factor (P01375 whole entry, the tested form may be a part): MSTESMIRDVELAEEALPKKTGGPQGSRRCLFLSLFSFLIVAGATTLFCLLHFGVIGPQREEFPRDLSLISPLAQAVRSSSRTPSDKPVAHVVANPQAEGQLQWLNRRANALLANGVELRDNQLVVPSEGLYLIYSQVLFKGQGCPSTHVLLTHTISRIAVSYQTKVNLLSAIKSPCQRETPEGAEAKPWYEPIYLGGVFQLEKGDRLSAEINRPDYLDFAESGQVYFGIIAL
Chain of Albumin (P02769 whole entry): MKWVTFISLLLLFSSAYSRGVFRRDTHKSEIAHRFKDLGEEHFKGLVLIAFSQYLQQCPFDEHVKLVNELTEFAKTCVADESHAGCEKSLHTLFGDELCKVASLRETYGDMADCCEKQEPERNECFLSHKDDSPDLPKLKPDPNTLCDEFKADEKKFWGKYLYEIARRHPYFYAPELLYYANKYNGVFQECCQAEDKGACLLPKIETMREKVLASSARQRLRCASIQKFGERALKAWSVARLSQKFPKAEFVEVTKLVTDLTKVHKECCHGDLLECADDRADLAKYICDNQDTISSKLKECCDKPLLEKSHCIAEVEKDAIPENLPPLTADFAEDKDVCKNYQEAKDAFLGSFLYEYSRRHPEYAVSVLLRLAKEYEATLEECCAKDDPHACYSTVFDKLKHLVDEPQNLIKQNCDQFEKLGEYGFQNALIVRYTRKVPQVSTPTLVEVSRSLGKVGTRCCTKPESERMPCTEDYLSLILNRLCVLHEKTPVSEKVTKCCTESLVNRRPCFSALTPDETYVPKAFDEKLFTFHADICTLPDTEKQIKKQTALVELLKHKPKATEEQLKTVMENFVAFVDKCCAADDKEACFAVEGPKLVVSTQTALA

| SMILES | AC50 (HeLa) | IC50 (Phospholipase D1) | IC50 (Phospholipase D2) | other results |
| --- | --- | --- | --- | --- |
| COc1cccc(/C=C2/SC(=S)N(CC(=O)NNC(=O)c3ccccc3O)C2=O)c1 | – | – | – | IC50 (SUMO-activating enzyme [1]): 29.4 µM (active); IC50 (SUMO-activating enzyme [2]): 11.8 µM (active); IC50 (Exodeoxyribonuclease V): > 119 µM (inactive); IC50 [3]: > 119 µM (inactive); IC50 (Albumin): > 94.1 µM (inactive) |
| COc1cccc(C(=O)Nc2ccc(NC(=O)C3CC3)cn2)c1 | 122 µM (active) | – | – | – |
| CCc1ccc(-c2cn3nc(-c4ccccc4)cnc3n2)cc1 | 241 µM (active) | – | – | – |
| Cc1ccc(C(=O)N(CCN2CCCCC2)CC2CCCN(C3CCCC3)C2)s1 (stereo not drawn) | 72.6 µM (active) | – | – | – |
| C[C@H](NC(=O)c1[nH]cnc1C(=O)NCCCCCNC(=O)OC(C)(C)C)c1ccccc1 | – | – | – | AC50 (Escherichia coli): 63.8 µM (active) |
| CC(=O)N1c2ccc(S(=O)(=O)N3CCN(c4ccc(Cl)cc4)CC3)cc2CC1C (stereo not drawn) | – | – | – | IC50 (Tumor necrosis factor): 5.76 µM (active); IC50 [4]: 2.57 µM (active); IC50 (HEK293): > 20 µM (inactive) |
| C[C@@H](CN1CC=C(n2c(=O)[nH]c3ccccc32)CC1)NC(=O)c1ccc2ccccc2c1 | – | 0.05 µM (active) | 2.25 µM (active) | – |
| C[C@@H](CN1CCC(n2c(=O)[nH]c3cc(I)ccc32)CC1)NC(=O)c1ccc2ccccc2c1 | – | 0.028 µM (active) | 6.37 µM (active) | – |
| C[C@@H](CN1CCC(n2c(=O)[nH]c3ccccc32)CC1)NC(=O)c1cc2ccccc2s1 | – | 0.002 µM (active) | 0.22 µM (active) | – |
